Test results reported in patent publication US20100311714A1, “1H-IMIDAZO[4,5-c]QUINOLINONE COMPOUNDS” (priority 2009, published 2010).
Where two headings read alike, the source gives them in different places.

Columns and labels:
PI3K alfa = molecular target: T1, PI3K alfa (Homo sapiens, UniProt P42336); assay: PI3K alpha kinase assay (Kinase-Glo luminescence); type: biochemical
T1 construct: His tag (C); made in house; host or cells: baculovirus BV1075; Tn5 (Trichoplusia ni) or TiniPro insect cells
Procedure, shortened: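 Kinase-Glo luminescence read of ATP remaining after PI3Kα (10 nM) phosphorylates 10 μg/mL bovine liver phosphatidylinositol with 1 μM ATP, pH 7.5 TRIS, 3 mM MgCl2, 0.05% CHAPS; 60 min at room temperature. IC50 from 4-parameter logistic fit over 8 concentrations.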

[1] = system: S6 Ribosomal Protein phosphorylation Ser235/236 in TSC1 null mouse embryo fibroblast (MEF) cells; assay: Reverse protein array, S6 Ribosomal Protein phosphorylation in TSC1 null MEF cells; type: cell-based; conditions: 1 h, TSC1-/- MEFs, 60 minutes
Procedure, shortened: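 Phospho-S6 (Ser235/236) was quantified by reverse protein array of cell lysates with a phospho-specific primary antibody. […]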

T1 sequence (P42336 with tags, fused parts or gaps limits assumed): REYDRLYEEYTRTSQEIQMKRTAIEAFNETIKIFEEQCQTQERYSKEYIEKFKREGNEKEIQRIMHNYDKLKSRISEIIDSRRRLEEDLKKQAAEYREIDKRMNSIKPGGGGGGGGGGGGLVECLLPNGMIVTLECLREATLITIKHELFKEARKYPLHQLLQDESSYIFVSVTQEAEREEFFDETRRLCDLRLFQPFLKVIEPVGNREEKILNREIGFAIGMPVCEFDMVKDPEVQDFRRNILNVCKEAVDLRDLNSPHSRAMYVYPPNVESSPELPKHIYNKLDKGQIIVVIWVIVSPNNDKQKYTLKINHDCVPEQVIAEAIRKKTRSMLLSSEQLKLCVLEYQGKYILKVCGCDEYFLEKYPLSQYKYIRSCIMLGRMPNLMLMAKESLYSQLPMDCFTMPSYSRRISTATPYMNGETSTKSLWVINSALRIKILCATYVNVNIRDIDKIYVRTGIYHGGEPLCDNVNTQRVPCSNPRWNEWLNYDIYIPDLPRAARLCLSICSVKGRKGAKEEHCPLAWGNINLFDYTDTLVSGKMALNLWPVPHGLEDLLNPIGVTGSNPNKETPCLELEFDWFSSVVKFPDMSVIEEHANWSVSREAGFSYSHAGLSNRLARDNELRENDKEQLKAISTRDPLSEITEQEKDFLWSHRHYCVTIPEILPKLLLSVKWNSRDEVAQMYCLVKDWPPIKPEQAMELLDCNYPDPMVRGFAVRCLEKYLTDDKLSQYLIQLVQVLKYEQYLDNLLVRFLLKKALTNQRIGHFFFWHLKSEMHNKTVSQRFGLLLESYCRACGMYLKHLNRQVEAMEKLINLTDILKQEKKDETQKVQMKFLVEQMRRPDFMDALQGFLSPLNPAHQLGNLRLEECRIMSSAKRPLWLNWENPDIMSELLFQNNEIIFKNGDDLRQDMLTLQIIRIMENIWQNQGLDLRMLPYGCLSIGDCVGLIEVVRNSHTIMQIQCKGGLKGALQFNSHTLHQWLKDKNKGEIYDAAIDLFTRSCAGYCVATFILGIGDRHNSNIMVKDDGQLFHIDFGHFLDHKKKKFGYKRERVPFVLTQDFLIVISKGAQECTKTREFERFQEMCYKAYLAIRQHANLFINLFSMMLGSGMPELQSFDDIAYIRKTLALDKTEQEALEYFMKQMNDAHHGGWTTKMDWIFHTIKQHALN

SMILES	IC50 (PI3K alfa; read-out: PI3Kalfa/IC50) [nM]	IC50 ([1]; read-out: p-S6) [nM]	IC50 (PI3K alfa; read-out: EPK_PI3Kalfa/IC50) [nM]	IC50 ([1]; read-out: p-S6 IC50) [nM]
CCOc1ccc(-c2ccc3ncc4c(c3c2)n(-c2cnccc2C)c(=O)n4C)cn1 [Example 4.2, 8-(6-Ethoxy-pyridin-3-yl)-3-methyl-1-(4-methyl-pyridin-3-yl)-1,3-dihydro-imidazo[4,5-c]quinolin-2-one]	206	460	–	–
Cc1ncccc1-n1c(=O)n(C)c2cnc3ccc(-c4cncc(N5CCC5)c4)cc3c21 [Example 2.29, 8-(5-Azetidin-1-yl-pyridin-3-yl)-3-methyl-1-(2-methyl-pyridin-3-yl)-1,3-dihydro-imidazo[4,5-c]quinolin-2-one]	–	–	179	5
Cc1ncccc1-n1c(=O)n(C)c2cnc3ccc(-c4cnc(N)c(C(F)(F)F)c4)cc3c21 [Example 2.11, 8-(6-Amino-5-trifluoromethyl-pyridin-3-yl)-3-methyl-1-(2-methyl-pyridin-3-yl)-1,3-dihydro-imidazo[4,5-c]quinolin-2-one]	7	2.35	–	–
CCNc1ncc(-c2ccc3ncc4c(c3c2)n(-c2ccc(N3CC[C@@H](O)C3)nc2C)c(=O)n4C)cc1COCC [Example 34.4, 8-(5-Ethoxymethyl-6-ethylamino-pyridin-3-yl)-1-[6-((R)-3-hydroxy-pyrrolidin-1-yl)-2-methyl-pyridin-3-yl]-3-methyl-1,3-dihydro-imidazo[4,5-c]quinolin-2-one]	–	–	65.5	8
CNc1ncc(-c2ccc3ncc4c(c3c2)n(-c2ccc(N(C)CCO)nc2C)c(=O)n4C)cn1 [Example 26.2, 1-{6-[(2-Hydroxy-ethyl)-methyl-amino]-2-methyl-pyridin-3-yl}-3-methyl-8-(2-methylamino-pyrimidin-5-yl)-1,3-dihydro-imidazo[4,5-c]quinolin-2-one]	–	–	63	< 0.457
CNc1ccc(-c2ccc3ncc4c(c3c2)n(-c2cccnc2C)c(=O)n4C)cn1 [Example 2.13, 3-Methyl-8-(6-methylamino-pyridin-3-yl)-1-(2-methyl-pyridin-3-yl)-1,3-dihydro-imidazo[4,5-c]quinolin-2-one]	14	2.78	–	–
COc1nc(N2CCNCC2)ccc1-n1c(=O)n(C)c2cnc3ccc(-c4cnc(N)c(C(F)(F)F)c4)cc3c21 [Example 9.2, 8-(6-Amino-5-trifluoromethyl-pyridin-3-yl)-1-(2-methoxy-6-piperazin-1-yl-pyridin-3-yl)-3-methyl-1,3-dihydro-imidazo[4,5-c]quinolin-2-one]	18	3.35	–	–
COc1cc(-c2ccc3ncc4c(c3c2)n(-c2cccnc2C)c(=O)n4C)cnc1C(OC)OC [Example 2.27, 8-(6-Dimethoxymethyl-5-methoxy-pyridin-3-yl)-3-methyl-1-(2-methyl-pyridin-3-yl)-1,3-dihydro-imidazo[4,5-c]quinolin-2-one]	–	–	80	54
CNc1ncc(-c2ccc3ncc4c(c3c2)n(-c2ccc(N3CC[C@H](O)C3)nc2C)c(=O)n4C)cc1F [Example 32.2, 8-(5-Fluoro-6-methylamino-pyridin-3-yl)-1-[6-((S)-3-hydroxy-pyrrolidin-1-yl)-2-methyl-pyridin-3-yl]-3-methyl-1,3-dihydro-imidazo[4,5-c]quinolin-2-one]	–	–	44	1
CCOc1ccc(-c2ccc3ncc4c(c3c2)n(-c2ccc(N3CCNCC3)nc2OC)c(=O)n4C)cn1 [Example 9.1, 8-(6-Ethoxy-pyridin-3-yl)-1-(2-methoxy-6-piperazin-1-yl-pyridin-3-yl)-3-methyl-1,3-dihydro-imidazo[4,5-c]quinolin-2-one]	58	13.5	–	–
Cc1nc(N(C)CCO)ccc1-n1c(=O)n(C)c2cnc3ccc(-c4cnc(N)c(C(F)(F)F)c4)cc3c21 [Example 26.1, 8-(6-Amino-5-trifluoromethyl-pyridin-3-yl)-1-{6-[(2-hydroxy-ethyl)-methyl-amino]-2-methyl-pyridin-3-yl}-3-methyl-1,3-dihydro-imidazo[4,5-c]quinolin-2-one]	–	–	12	< 0.457
COc1ccc(-c2ccc3ncc4c(c3c2)n(-c2cccnc2C)c(=O)n4C)cn1 [Example 2.12, 8-(6-Methoxy-pyridin-3-yl)-3-methyl-1-(2-methyl-pyridin-3-yl)-1,3-dihydro-imidazo[4,5-c]quinolin-2-one]	26	18	–	–
Cc1nc(F)ccc1-n1c(=O)n(C)c2cnc3ccc(-c4cncc(C(C)(C)O)c4)cc3c21 [Example 7.8, 1-(6-Fluoro-2-methyl-pyridin-3-yl)-8-[5-(1-hydroxy-1-methyl-ethyl)-pyridin-3-yl]-3-methyl-1,3-dihydro-imidazo[4,5-c]quinolin-2-one]	–	–	21	10
COc1ncc(-c2ccc3ncc4c(c3c2)n(-c2ccc(N3CC[C@H](O)C3)nc2C)c(=O)n4C)c(OC)n1 [Example 32.3, 8-(2,4-Dimethoxy-pyrimidin-5-yl)-1-[6-((S)-3-hydroxy-pyrrolidin-1-yl)-2-methyl-pyridin-3-yl]-3-methyl-1,3-dihydro-imidazo[4,5-c]quinolin-2-one]	–	–	32	4
CCOc1ccc(-c2ccc3ncc4c(c3c2)n(-c2ccc(F)nc2C)c(=O)n4C)cn1 [Example 7.3, 8-(6-Ethoxy-pyridin-3-yl)-1-(6-fluoro-2-methyl-pyridin-3-yl)-3-methyl-1,3-dihydro-imidazo[4,5-c]quinolin-2-one]	67	84.3	–	–
Cc1nc(N2CC[C@H](O)C2)ccc1-n1c(=O)n(C)c2cnc3ccc(-c4cncc(OC(C)C)c4)cc3c21 [Example 32.8, 1-[6-((S)-3-Hydroxy-pyrrolidin-1-yl)-2-methyl-pyridin-3-yl]-8-(5-isopropoxy-pyridin-3-yl)-3-methyl-1,3-dihydro-imidazo[4,5-c]quinolin-2-one]	–	–	71	2.2
COc1ncccc1-n1c(=O)n(C)c2cnc3ccc(-c4ccc(C(N)=O)cc4)cc3c21 [Example 1.6, 4-[1-(2-Methoxy-pyridin-3-yl)-3-methyl-2-oxo-2,3-dihydro-1H-imidazo[4,5-c]quinolin-8-yl]-benzamide]	17	21.9	–	–
CCNc1ncc(-c2ccc3ncc4c(c3c2)n(-c2ccc(N3CC[C@@H](O)C3)nc2C)c(=O)n4C)cc1C(F)(F)F [Example 34.2, 8-(6-Ethylamino-5-trifluoromethyl-pyridin-3-yl)-1-[6-((R)-3-hydroxy-pyrrolidin-1-yl)-2-methyl-pyridin-3-yl]-3-methyl-1,3-dihydro-imidazo[4,5-c]quinolin-2-one]	–	–	28	1.9
CNc1ncc(-c2ccc3ncc4c(c3c2)n(-c2ccc(N3CC(F)(F)C3)nc2C)c(=O)n4C)cn1 [Example 24.1, 1-[6-(3,3-Difluoro-azetidin-1-yl)-2-methyl-pyridin-3-yl]-3-methyl-8-(2-methylamino-pyrimidin-5-yl)-1,3-dihydro-imidazo[4,5-c]quinolin-2-one]	–	–	49	2
CNc1ncc(-c2ccc3ncc4c(c3c2)n(-c2ccc(N3CC[C@H](O)C3)nc2C)c(=O)n4C)cc1C(F)(F)F [Example 32.5, 1-[6-((S)-3-Hydroxy-pyrrolidin-1-yl)-2-methyl-pyridin-3-yl]-3-methyl-8-(6-methylamino-5-trifluoromethyl-pyridin-3-yl)-1,3-dihydro-imidazo[4,5-c]quinolin-2-one]	–	–	9	1
